Data set [1] concerns SOD in liver. Description: Hepatic superoxide dismutase (SOD) activity. It counts as in vivo, Kunming mice. The following applies: PC, metformin 150 mg/kg. The procedure:
(§1) Fifty healthy adult male Kunming mice were purchased from Zhuhai Bestest Biotechnology Co., Ltd. The experiments were approved by the Animal Ethics Committee of Guangdong Ocean University with the approval number of GDOU-LAE-2021-002, approved on 6 April 2021. Before the experiment, all animals were watered and fed freely for 7 days. […] The groups were mixed with soluble starch (250 mg/kg) and gavaged synchronously for 3 d.

The test system of data set [2] is serum insulin. In words: Effect of EHCA on serum insulin (INS). It counts as in vivo, Kunming mice. The following applies: PC, metformin 150 mg/kg, mean ± SD, n = 10 mice. The method, then: as §1, with “3 d. […] Effects of EHCA on mice at the end of the test, blood was taken from the eyeballs of mice, which were executed in the decapitated position, and the organs were collected for subsequent experiments. […] (5) […] Where WISI is the insulin sensitivity index; WFPG is fasting blood glucose, mmol/[…] is fasting insulin content (μU/mL); and WFBCI is the insulin secretion index.” for “3 d.”

Data set [3] deals with blood glucose. In words: Effect of EHCA on blood glucose in normal mice (starch gavage). The format is in vivo, Kunming mice. The procedure: Fifty healthy adult male Kunming mice were purchased from Zhuhai Bestest Biotechnology Co., Ltd. The experiments were approved by the Animal Ethics Committee of Guangdong Ocean University with the approval number of GDOU-LAE-2021-002, approved on 6 April 2021. Before the experiment, all animals were watered and fed freely for 7 days. […] The groups were mixed with soluble starch (250 mg/kg) and gavaged synchronously for 3 d. […] Where G0 is the pre-dose fasting blood glucose value, mmol/L; […] Area under the curve (AUC) was calculated applying the following formula (Equation 4): (4) […]/4.

The conditions of data set [4]: pH 7.4.
Data set [5] addresses α-glucosidase (Saccharomyces cerevisiae, UniProt P53341). The following applies: cited from earlier work. The source says:
Marine proteins have a novel amino acid composition, which is one of the important sources for the production of bioactive peptides ([11], [12]). There have been a number of studies on natural hypoglycemic active peptides from marine sources such as Trachurus trachurus, Euphausia superba, Chlorella vulgaris and Crassostrea gigas ([11], [13-15]). […] The molecular weight of protein hydrolysates is a determinant of their biological activity, and peptide fractions with low molecular weights are highly biologically active ([33]).

Data set [6] concerns glucose metabolizing enzyme. The conditions noted are these: extracted from Spirulina; cited from earlier work. The text has this:
Marine proteins have a novel amino acid composition, which is one of the important sources for the production of bioactive peptides ([11], [12]). There have been a number of studies on natural hypoglycemic active peptides from marine sources such as Trachurus trachurus, Euphausia superba, Chlorella vulgaris and Crassostrea gigas ([11], [13–15]).

Where “and” joins values, the source holds several entries; their conditions need not be identical. Identical values can stand only once. Marks after values point to notes of the source that are not given here. Where no end group is shown, it is not given here.

Sequence of α-glucosidase (P53341 whole entry): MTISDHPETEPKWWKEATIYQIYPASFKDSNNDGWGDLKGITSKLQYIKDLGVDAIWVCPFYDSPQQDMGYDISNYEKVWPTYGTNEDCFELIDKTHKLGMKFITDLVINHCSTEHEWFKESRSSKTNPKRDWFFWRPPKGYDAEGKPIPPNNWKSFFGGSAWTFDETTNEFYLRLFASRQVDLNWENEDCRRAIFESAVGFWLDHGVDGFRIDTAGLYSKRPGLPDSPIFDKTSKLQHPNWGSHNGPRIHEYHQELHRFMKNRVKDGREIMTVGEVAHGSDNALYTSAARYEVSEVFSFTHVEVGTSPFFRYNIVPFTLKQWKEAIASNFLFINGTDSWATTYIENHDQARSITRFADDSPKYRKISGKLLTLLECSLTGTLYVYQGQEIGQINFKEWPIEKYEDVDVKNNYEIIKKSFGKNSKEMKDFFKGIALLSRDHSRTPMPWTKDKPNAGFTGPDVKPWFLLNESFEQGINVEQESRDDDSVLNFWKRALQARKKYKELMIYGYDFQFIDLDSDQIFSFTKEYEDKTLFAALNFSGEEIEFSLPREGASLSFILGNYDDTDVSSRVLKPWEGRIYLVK

With `CN(C)C(=N)N=C(N)N` [metformin], in data set [1] (WST-8 method, mean ± SD, n = 10 mice, NC 242.00 ± 66.43), the “SOD activity in liver” value turned out to be 363.55 ± 18.09 U/mL. Further, the “increase of SOD activity in liver” value in data set [1] (compared to the NC group) is recorded as 50.23%. In addition, the Fasting serum insulin in data set [2] (ELISA) was 29.82 ± 5.50^a mIU/L. In data set [2], the Insulin secretion index is reported as 8.50 ± 1.12^a and the Insulin sensitivity index was 2.13 ± 0.13^a. In addition, the “blood glucose values after gavage vs NC (in words)” value in data set [3] (0.5 h and 2 h of gavage, compared with the NC group, p < 0.05) is “significantly reduce the blood glucose values”. For the same compound, the “AUC of blood glucose (in words)” value in data set [3] (EHCA 500-2,000 mg/kg or metformin 150 mg/kg, relative to NC group, p < 0.05, n = 10) was “markedly reduced the AUC values”. Also, the “Blood glucose value, G1” value in data set [3] (PC, metformin 150 mg/kg, gavage 3 d, fasting at the end of dosing, mean ± SD, n = 10 mice) is 3.21 ± 0.20^a mmol/L. Also, in data set [3] (PC, metformin 150 mg/kg, gavage 3 d with soluble starch, 0.5 h, mean ± SD, n = 10 mice, listed as PC), the “Blood glucose value, 0.5 h” value came to 8.45 mmol/L. For the same compound, the “Blood glucose value, 2 h” value in data set [3] (PC, metformin 150 mg/kg, gavage 3 d with soluble starch, 2 h, mean ± SD, n = 10 mice, listed as PC) is 6.87 ± 1.14 mmol/L and 6.87 mmol/L. Moreover, the “Blood glucose value, G0” value in data set [3] (PC, metformin 150 mg/kg, pre-dose fasting, mean ± SD, n = 10 mice) is recorded as 4.94 ± 1.71^a mmol/L. Also, the “hypoglycemic rate (in words)” value in data set [3] (fasted mice, EHCA 500-2,000 mg/kg or metformin 150 mg/kg, 3 d, compared with the NC group, n = 10) is on record as “significantly increased the hypoglycemic rate”.

On to KLNSTTEKLEE, for which the solubility result in data set [4] was “good solubility”.

With LPLLR [Walnut-derived peptide LPLLR], the “inhibition of α-glucosidase” value in data set [5] (2 mM, walnut-derived) is on record as 50.12%.

Usually IC50 stands for the concentration needed to halve the response being measured. As to “LRSELAAWSR [peptide from Spirulina platensis]”, in data set [5] (from Spirulina platensis), the IC50 is 134 µM and the “IC50, inhibitory activity against α-glucosidase” value is 134.2 µg/mL.

For the compound “TDADHKF [TDADHKF, Thr-Asp-Ala-Asp-His-Lys-Phe]”, the solubility result in data set [4] is reported as “good solubility”.

With “USW: anti-diabetic peptide USW extracted from Spirulina (LRSELAAWSR)”, in data set [6], the “effect on insulin resistance / glucose metabolizing enzyme” value is listed as “improve insulin resistance by significantly increasing activity of glucose metabolizing enzyme”.

The values above are taken from paper PMC11973072, “Computational screening for novel α-glucosidase inhibitory peptides from Chlamys nobilis adductor muscle as a potential antidiabetic agent” (Frontiers in Nutrition, 2025).
